{"source": "ChEMBL document CHEMBL1201862", "about": "“PubChem BioAssay data set” (2004)", "key": {"[1]": {"target": "Eukaryotic translation initiation factor 4H (Homo sapiens, UniProt Q15056)", "assay": "eIF4H binding inhibition – biochemical, uHTS, fluorescence polarization, translation initiation inhibitor project, primary screen (AID 2012)"}, "[2]": {"target": "5-hydroxytryptamine receptor 1A (Homo sapiens, UniProt P08908)", "sequence (P08908 whole entry)": "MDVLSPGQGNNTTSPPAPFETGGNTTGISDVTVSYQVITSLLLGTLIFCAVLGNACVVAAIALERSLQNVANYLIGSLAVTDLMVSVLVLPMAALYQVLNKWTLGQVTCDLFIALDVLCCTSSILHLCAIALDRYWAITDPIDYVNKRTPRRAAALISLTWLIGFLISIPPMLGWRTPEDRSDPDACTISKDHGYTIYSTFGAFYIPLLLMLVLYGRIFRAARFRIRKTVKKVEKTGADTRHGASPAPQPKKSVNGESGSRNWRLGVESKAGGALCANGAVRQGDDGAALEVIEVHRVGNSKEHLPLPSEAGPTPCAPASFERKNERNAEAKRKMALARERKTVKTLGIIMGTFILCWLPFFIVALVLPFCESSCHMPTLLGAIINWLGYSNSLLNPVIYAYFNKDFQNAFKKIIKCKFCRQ", "type": "functional"}, "[3]": {"target": "T1, Carboxy-terminal domain RNA polymerase II polypeptide A small phosphatase 1 (Homo sapiens, UniProt Q9GZU7)", "T1 sequence (Q9GZU7 whole entry)": "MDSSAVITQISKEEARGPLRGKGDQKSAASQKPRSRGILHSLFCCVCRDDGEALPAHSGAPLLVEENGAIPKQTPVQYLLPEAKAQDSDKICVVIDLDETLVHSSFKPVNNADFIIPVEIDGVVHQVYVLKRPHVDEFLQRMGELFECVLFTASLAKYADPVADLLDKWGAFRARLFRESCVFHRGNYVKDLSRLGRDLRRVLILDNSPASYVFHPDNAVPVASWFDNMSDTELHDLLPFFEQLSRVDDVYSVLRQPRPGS", "assay": "CTDSP1 inhibitors, concentration-response, biochemical, absorbance readout, ultra-high-throughput screen actives (AID 540297)", "type": "functional"}, "[4]": {"target": "Polyadenylate-binding protein 1 (Homo sapiens, UniProt P11940)", "sequence (P11940 whole entry)": "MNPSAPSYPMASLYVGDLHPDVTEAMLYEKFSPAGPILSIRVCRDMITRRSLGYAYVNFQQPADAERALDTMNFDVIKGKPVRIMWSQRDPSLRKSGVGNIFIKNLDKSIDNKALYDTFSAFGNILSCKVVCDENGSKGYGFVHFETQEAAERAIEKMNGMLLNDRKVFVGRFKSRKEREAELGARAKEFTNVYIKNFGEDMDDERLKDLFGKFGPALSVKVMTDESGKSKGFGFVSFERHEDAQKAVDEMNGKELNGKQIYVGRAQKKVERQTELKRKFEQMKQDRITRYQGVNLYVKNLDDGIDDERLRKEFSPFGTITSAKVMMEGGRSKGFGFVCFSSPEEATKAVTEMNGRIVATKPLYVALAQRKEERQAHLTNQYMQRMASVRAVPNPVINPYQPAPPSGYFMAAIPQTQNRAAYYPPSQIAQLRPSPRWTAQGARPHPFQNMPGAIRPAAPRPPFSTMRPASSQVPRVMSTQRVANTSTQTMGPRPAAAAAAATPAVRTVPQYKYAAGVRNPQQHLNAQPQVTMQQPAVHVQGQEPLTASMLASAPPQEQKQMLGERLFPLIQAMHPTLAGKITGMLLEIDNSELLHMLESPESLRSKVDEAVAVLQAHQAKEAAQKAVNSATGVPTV", "assay": "blockers of PABP interaction with poly(A) – biochemical, fluorescence polarization, […] (AID 2014)"}, "[5]": {"assay": "M. tuberculosis growth inhibition, HTS (AID 449762)", "type": "functional"}, "Danio rerio": {"tested_on": "Danio rerio", "assay": "In Vivo Angiogenesis Dose-Response Confirmation. [Related pubchem assays: 732 (Assay preceding this confirmatory assay.)]", "type": "functional, organism-based"}, "[6]": {"target": "Photoreceptor-specific nuclear receptor (Homo sapiens, UniProt Q9Y5X4)", "sequence (Q9Y5X4 whole entry)": "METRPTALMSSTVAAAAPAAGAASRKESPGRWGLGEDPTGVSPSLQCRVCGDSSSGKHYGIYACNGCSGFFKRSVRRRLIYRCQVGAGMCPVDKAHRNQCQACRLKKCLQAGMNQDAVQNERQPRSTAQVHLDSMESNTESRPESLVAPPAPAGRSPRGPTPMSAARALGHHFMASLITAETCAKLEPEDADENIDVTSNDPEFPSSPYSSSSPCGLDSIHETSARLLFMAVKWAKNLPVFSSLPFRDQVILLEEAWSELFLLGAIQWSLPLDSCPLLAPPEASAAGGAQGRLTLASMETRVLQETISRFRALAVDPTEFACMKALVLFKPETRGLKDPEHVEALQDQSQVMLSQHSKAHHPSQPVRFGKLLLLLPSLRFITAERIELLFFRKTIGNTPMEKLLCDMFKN", "assay": "ligands suppressing NR2E3 nuclear receptor activity – biochemical, TR-FRET, dose response (AID 463256)", "type": "functional"}, "[7]": {"target": "Peroxisome proliferator-activated receptor gamma/Nuclear receptor corepressor 2 (Homo sapiens, UniProt P37231+Q9Y618)", "sequence (P37231 whole entry)": "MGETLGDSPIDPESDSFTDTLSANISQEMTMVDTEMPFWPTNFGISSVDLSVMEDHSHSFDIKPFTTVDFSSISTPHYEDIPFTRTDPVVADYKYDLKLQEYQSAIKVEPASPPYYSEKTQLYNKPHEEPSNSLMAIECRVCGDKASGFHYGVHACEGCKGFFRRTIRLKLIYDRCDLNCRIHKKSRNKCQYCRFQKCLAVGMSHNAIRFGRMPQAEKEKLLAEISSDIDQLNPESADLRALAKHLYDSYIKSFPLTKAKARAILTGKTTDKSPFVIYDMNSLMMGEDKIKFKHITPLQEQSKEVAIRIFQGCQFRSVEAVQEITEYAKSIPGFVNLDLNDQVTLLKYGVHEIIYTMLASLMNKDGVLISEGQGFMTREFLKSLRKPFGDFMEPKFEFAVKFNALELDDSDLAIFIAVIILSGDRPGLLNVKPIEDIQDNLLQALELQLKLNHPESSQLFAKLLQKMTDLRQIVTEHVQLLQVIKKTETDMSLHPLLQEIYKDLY", "sequence (Q9Y618 whole entry)": "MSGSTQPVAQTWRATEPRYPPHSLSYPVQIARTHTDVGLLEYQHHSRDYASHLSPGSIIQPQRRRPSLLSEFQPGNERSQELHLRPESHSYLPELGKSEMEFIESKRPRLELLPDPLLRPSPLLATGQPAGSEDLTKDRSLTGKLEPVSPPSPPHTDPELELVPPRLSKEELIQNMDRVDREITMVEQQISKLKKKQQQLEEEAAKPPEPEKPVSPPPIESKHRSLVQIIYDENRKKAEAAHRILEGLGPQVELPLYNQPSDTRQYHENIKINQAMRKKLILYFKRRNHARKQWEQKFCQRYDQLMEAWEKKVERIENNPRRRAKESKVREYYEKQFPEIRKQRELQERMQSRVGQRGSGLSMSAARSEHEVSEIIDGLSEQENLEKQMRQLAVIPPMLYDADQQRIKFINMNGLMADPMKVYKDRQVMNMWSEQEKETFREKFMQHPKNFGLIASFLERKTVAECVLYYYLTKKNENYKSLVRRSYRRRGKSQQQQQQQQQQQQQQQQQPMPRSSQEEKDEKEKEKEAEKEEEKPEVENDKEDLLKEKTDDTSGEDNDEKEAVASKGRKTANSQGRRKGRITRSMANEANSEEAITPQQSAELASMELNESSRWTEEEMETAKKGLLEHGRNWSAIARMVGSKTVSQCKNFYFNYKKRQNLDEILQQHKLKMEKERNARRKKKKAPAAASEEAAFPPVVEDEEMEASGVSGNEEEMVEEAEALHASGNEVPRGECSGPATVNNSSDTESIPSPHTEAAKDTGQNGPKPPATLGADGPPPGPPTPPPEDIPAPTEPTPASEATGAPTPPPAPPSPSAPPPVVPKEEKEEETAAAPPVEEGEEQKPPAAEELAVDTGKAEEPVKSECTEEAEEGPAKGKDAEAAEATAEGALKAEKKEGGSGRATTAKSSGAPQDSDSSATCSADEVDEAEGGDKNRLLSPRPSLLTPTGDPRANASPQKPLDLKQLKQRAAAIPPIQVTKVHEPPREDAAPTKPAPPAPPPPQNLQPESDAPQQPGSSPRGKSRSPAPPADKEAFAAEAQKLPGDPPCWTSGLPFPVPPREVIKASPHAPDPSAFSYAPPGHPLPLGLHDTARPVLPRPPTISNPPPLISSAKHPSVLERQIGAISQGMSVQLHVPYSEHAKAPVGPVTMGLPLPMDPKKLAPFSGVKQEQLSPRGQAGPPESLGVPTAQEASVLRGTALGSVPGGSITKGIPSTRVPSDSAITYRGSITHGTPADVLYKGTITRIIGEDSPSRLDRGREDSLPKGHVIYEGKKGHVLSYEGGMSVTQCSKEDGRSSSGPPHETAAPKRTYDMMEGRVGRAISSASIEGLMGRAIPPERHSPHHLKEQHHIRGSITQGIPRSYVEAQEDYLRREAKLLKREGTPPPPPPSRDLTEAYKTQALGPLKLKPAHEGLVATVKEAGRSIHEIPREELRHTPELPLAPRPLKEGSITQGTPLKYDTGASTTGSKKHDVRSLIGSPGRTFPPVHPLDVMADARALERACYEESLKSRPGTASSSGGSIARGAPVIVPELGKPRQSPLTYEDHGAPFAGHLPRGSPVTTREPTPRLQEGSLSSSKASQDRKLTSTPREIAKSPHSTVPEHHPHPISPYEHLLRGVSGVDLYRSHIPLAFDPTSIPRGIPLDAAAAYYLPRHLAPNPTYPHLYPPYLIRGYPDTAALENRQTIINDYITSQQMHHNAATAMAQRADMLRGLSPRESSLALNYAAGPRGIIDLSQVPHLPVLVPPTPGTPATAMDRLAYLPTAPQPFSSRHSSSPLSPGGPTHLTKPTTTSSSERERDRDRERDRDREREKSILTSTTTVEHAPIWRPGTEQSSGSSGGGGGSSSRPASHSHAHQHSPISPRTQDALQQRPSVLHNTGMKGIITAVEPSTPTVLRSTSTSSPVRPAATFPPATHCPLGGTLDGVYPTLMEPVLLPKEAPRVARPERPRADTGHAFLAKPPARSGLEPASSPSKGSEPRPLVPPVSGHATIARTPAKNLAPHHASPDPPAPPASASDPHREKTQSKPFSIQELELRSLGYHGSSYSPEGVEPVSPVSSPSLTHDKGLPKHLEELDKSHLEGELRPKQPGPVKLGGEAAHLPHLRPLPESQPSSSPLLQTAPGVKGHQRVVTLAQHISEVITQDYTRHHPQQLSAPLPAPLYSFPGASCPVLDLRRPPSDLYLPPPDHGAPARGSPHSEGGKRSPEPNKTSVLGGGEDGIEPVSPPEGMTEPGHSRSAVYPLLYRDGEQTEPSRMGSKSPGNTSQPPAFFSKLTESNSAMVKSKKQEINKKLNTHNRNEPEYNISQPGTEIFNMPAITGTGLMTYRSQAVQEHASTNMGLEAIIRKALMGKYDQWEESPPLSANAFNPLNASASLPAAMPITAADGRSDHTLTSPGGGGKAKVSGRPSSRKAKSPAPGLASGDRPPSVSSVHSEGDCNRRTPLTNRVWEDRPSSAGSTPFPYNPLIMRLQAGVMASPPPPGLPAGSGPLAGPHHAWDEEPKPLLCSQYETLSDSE", "assay": "Counterscreen for NR2E3 inverse agonists: TR-FRET-based biochemical high throughput dose response assay to identify inverse agonists of the interaction between peroxisome proliferator-activated receptor gamma (PPARg) and nuclear receptor co-repressor 2 (NCOR2).", "type": "functional"}, "Genome polyprotein": {"target": "Genome polyprotein (Hepatitis C virus, UniProt Q2Q167)", "sequence (Q2Q167 whole entry)": "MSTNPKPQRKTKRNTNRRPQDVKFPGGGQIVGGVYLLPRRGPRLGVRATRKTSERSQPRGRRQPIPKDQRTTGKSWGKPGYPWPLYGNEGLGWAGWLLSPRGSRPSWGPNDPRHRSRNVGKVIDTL", "assay": "disruption of hepatitis C core self-association – biochemical, TR-FRET, dose response (AID 2159);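 further: blocks dimerization of HCV core protein measured by TR-FRET between tagged core106 pairs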", "set-up": "species or system Hepacivirus hominis"}, "H9c2": {"tested_on": "H9c2", "assay": "cells", "type": "functional, cell-based", "settings": "Rattus norvegicus, H9c2, Myocardium"}, "NADPH oxidase 1": {"target": "T2, NADPH oxidase 1 (Homo sapiens, UniProt Q9Y5S8)", "T2 sequence (Q9Y5S8 whole entry)": "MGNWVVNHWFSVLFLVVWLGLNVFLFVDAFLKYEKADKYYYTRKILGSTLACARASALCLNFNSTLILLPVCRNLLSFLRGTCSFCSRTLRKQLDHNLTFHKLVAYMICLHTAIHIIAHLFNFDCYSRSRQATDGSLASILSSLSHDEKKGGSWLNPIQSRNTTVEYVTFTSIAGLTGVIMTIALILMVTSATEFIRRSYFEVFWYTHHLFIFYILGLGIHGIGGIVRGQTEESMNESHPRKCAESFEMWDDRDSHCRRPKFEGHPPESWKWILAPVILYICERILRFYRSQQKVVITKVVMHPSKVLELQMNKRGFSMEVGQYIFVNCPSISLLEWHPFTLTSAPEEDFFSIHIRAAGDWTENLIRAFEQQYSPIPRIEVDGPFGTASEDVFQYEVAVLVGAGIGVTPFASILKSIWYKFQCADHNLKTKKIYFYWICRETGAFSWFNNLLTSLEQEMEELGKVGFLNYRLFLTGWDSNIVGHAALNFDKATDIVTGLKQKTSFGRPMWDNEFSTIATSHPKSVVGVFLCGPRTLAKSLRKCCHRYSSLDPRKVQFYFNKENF", "assay": "Late-stage luminescence-based cell-based dose response assay to identify inhibitors of NADPH oxidase 1 (NOX1): Purchased analogs 2.", "type": "functional"}}, "note": "Calls of active or inactive are those of the source."}
{"smiles": "C[N+]1=C2CCCCCN2C(O)(c2ccccc2)C1", "note": "(stereo unspecified)", "values": [{"measurement": "IC50", "setting": "[1]", "result": "75.1 µM (active)"}, {"measurement": "EC50", "setting": "[2]", "result": "13.8 µM (not active)"}, {"measurement": "IC50", "setting": "[3]", "result": "7.03 µM (active)"}, {"measurement": "IC50", "setting": "[4]", "result": "3.25 µM (active)"}]}
{"smiles": "Clc1ccc(CSc2nc[nH]n2)cc1", "values": [{"measurement": "IC50", "setting": "[5]", "result": "> 100 µM (active)"}]}
{"smiles": "Cc1cccc2c1NC(=O)/C2=C1\\Nc2ccc(Br)cc2C1=O", "values": [{"measurement": "IC50", "setting": "Danio rerio", "result": "0.52 µM (not active)"}]}
{"smiles": "COc1ccc(-c2ccc(SCC(=O)Nc3nccs3)nn2)cc1OC", "values": [{"measurement": "IC50", "setting": "[6]", "result": "7.04 µM (active)"}, {"measurement": "IC50", "setting": "[7]", "result": "6.57 µM (active)"}]}
{"smiles": "COc1ccc2oc(C(=O)Nc3ccc(N4CCOCC4)cc3)c(C)c2c1", "values": [{"measurement": "IC50", "setting": "Genome polyprotein", "result": "> 49.8 µM (not active)"}, {"measurement": "IC50", "setting": "H9c2", "result": "> 79 µM (inactive)"}]}
{"smiles": "COc1cc(/C=N/Nc2c(F)c(F)nc(F)c2F)cc(OC)c1O", "values": [{"measurement": "IC50", "setting": "NADPH oxidase 1", "result": "2.94 µM (active)"}]}
